Converted amounts (≈) assume the structure as drawn. Like-named read-outs stand apart in the source and are kept apart here. Starred links: 1 amine or outer side, 2 acyl side, 3 side chain; linkers in the order of their positions; H or OH if unused. Positions of bridges follow the written chain, without caps; N, C: chain ends. Residues, ends and D or L forms follow the SMILES beside them. *: point of attachment. C20 diacid = O=C(O)CCCCCCCCCCCCCCCCCCC(=O)*; γGlu = O=C(O)[C@H](CCC(=O)[*:2])N[*:1]
What was measured:
[1] = biological target: T1, human amylin receptor (amylin 3(a) receptor: human calcitonin receptor + RAMP-3) (Homo sapiens, UniProt O60896+P30988); experiment: Assay (II)a functional CRE-luciferase assay, human amylin receptor; format: cell-based; conditions: Table 2; BHK amylin 3(a)-receptor/CRE-luc cells
T1 construct: expressed in transfected cells; host or cells: BHK570
T1 sequence (P30988 25-474): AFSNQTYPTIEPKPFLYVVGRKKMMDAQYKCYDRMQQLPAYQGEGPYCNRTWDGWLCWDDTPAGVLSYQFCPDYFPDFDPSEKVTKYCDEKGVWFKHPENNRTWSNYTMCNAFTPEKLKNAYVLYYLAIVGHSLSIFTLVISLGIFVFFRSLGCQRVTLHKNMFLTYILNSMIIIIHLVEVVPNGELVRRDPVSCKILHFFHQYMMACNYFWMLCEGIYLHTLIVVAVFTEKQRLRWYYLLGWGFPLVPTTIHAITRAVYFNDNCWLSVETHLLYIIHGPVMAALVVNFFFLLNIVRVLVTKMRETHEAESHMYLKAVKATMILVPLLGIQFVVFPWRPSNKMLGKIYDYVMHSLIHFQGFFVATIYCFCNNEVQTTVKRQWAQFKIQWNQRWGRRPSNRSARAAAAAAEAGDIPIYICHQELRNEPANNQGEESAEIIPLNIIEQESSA
T1 sequence (O60896 24-148 partner): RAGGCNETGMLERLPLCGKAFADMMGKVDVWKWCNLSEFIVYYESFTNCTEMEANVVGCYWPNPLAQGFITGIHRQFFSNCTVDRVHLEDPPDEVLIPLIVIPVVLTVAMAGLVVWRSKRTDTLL

[2] = biological target: T2, human calcitonin receptor (Homo sapiens, UniProt P30988); experiment: Assay (II)a functional CRE-luciferase assay, human calcitonin receptor; format: cell-based; conditions: Table 7; human calcitonin (CTa) receptor
T2 construct: expressed in transfected cells; host or cells: BHK570
T2 sequence (P30988 25-474): T1 sequence (P30988 25-474)

[3] = Assay (III) ThT fibrillation assay for physical stability; format: physicochemical; conditions: ThT fibrillation assay
From the text: ASSAY (III)—ThT Fibrillation Assays for the Assessment of Physical Stability of Protein formulations Low physical stability of a polypeptide may lead to amyloid fibril formation, which is observed as well-ordered, thread-like macromolecular structures in the sample eventually resulting in gel formation. This has traditionally been measured by visual inspection of the sample. However, that kind of measurement is very subjective and depending on the observer. Therefore, the application of a small molecule indicator probe is much more advantageous. Thioflavin T (ThT) is such a probe and has a distinct fluorescence signature when binding to fibrils [Naiki et al. (1989) Anal. Biochem. 177, 244-249; LeVine (1999) Methods. Enzymol. […], 274-284]. The time course for fibril formation can be described by a sigmoidal curve with the following expression [Nielsen et al. (2001) Biochemistry 40, 6036-6046]: [formula] Here, F is the ThT fluorescence at the time t. The constant t0 is the time needed to reach 50% of maximum fluorescence. […] Few of those intermediates nucleate to form a template onto which further intermediates may assembly and the fibrillation proceeds. The lag-time corresponds to the interval in which the critical mass of nucleus is built up and the apparent rate constant is the rate with which the fibril itself is formed. Sample Preparation Samples were prepared freshly before each assay. Each sample composition is described in each example. The pH of the sample was adjusted to the desired value using appropriate amounts of concentrated NaOH and HClO4 or HCl. Thioflavin T was added to the samples from a stock solution in H2O to a final concentration of 1 μM. Sample aliquots of 200 μl were placed in a 96 well microtiter plate (Packard OptiPlate™-96, white polystyrene). Usually, four or eight replica of each sample (corresponding to one test condition) were placed in one column of wells. The plate was sealed with Scotch Pad (Qiagen). Incubation and Fluorescence Measurement Incubation at given temperature, shaking and measurement of the ThT fluorescence emission were done in a Fluoroskan Ascent FL fluorescence platereader or Varioskan platereader (Thermo Labsystems). The temperature was adjusted to 37° C. The orbital shaking was adjusted to 960 rpm with an amplitude of 1 mm in all the presented data. Fluorescence measurement was done using excitation through a 444 nm filter and measurement of emission through a 485 nm filter. Each run was initiated by incubating the plate at the assay temperature for 10 min. The plate was measured every 20 minutes for a desired period of time. Between each measurement, the plate was shaken and heated as described. Data Handling The measurement points were saved in Microsoft Excel format for further processing and curve drawing and fitting was performed using GraphPad Prism. The background emission from ThT in the absence of fibrils was negligible. The data points are typically a mean of four or eight samples and shown with standard deviation error bars. Only data obtained in the same experiment (i.e. samples on the same plate) are presented in the same graph ensuring a relative measure of fibrillation between experiments. The data set may be fitted to Eq. (1). However, since full sigmodial curves in this case are not always achieved during the measurement time, the degree of fibrillation is expressed as ThT fluorescence tabulated as the mean of the samples and shown with the standard deviation at various time points. Measurement of Initial and Final Concentrations The polypeptide concentration in each of the tested formulations were measured both before application in the ThT fibrillation assay (“Initial”) and after completion of the ThT fibrillation (“After ThT assay”). Concentrations were determined by reverse HPLC methods using a pramlintide standard as a reference. Before measurement after completion 150 μl was collected from each of the replica and transferred to an Eppendorf tube. […]

[4] = Assay (IV) determination of solubility; format: physicochemical
How it was run: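 Polypeptide in water (~500 nmol/ml stock) was mixed 1:1 with 100 mM buffers from pH 3.0 to 8.0 (glycylglycine pH 3.0–5.0; bistrispropane pH 6.0–8.0). After 18 hours at room temperature, samples were centrifuged and the polypeptide remaining in solution was quantified by HPLC.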

[5] = bistrispropane buffer, pH 6, pH 6.0, read-out: Solubility pH 6.0
[6] = bistrispropane buffer, pH 6.5, pH 6.5, read-out: Solubility pH 6.5
[7] = bistrispropane buffer, pH 7, pH 7.0, 18 hours at room temperature, Table 3, read-out: Solubility pH 7.0
[8] = bistrispropane buffer, pH 7, pH 7.0, read-out: Solubility pH 7.0
[9] = bistrispropane buffer, pH 7.5, pH 7.5, read-out: Solubility pH 7.5
[10] = bistrispropane buffer, pH 8, pH 8.0, read-out: Solubility pH 8.0
[11] = glycylglycine buffer, pH 3, pH 3.0, read-out: Solubility pH 3.0
[12] = glycylglycine buffer, pH 4, pH 4.0, 18 hours at room temperature, Table 2, read-out: Solubility pH 4.0
[13] = glycylglycine buffer, pH 4, pH 4.0, read-out: Solubility pH 4.0
[14] = glycylglycine buffer, pH 5, pH 5.0, read-out: Solubility pH 5.0

EC50 [1] [nM] | EC50 [2] [nM] | ThT pH 4.0 lag time (h) [3] [h] | solubility at 18 h [4, 5] [µM] | solubility at 18 h [4, 6] [µM] | solubility at 18 h [4, 7] [µM] | solubility at 18 h [4, 8] [µM] | solubility at 18 h [4, 9] [µM] | solubility at 18 h [4, 10] [µM] | solubility at 18 h [4, 11] [µM] | solubility at 18 h [4, 12] [µM] | solubility at 18 h [4, 13] [µM] | solubility at 18 h [4, 14] [µM] | Structure (SMILES)
0.119 | 0.184 | 2.7 | > 200 | > 200 | > 200 | > 200 | > 200 | > 200 | > 200 | > 200 | > 200 | > 200 | CC[C@H](C)[C@H](NC(=O)[C@@H]1CCCN1C(=O)CNC(=O)[C@H](Cc1ccccc1)NC(=O)[C@H](CC(N)=O)NC(=O)[C@H](CC(N)=O)NC(=O)[C@H](CO)NC(=O)[C@H](CO)NC(=O)[C@H](Cc1c[nH]cn1)NC(=O)[C@H](Cc1c[nH]cn1)NC(=O)[C@H](CC(C)C)NC(=O)[C@H](Cc1ccccc1)NC(=O)[C@H](CCC(=O)O)NC(=O)[C@H](C)NC(=O)[C@H](CC(C)C)NC(=O)[C@H](CCCNC(=N)N)NC(=O)[C@H](CCC(N)=O)NC(=O)[C@@H](NC(=O)[C@H](C)NC(=O)[C@@H]1CSSC[C@H](NC(=O)[C@H](CCCNC(=N)N)NC(=O)[C@H](CCC(=O)O)NC(=O)CC[C@H](NC(=O)CCCCCCCCCCCCCCCCCCC(=O)O)C(=O)O)C(=O)N[C@@H](CC(N)=O)C(=O)N[C@@H]([C@@H](C)O)C(=O)N[C@@H](C)C(=O)N[C@@H]([C@@H](C)O)C(=O)N1)[C@@H](C)O)C(=O)N[C@@H](CC(C)C)C(=O)N1CCC[C@H]1C(=O)N1CCC[C@H]1C(=O)N[C@H](C(=O)N[C@@H](CC(N)=O)C(=O)N[C@H](C(=O)NCC(=O)N[C@@H](CO)C(=O)N[C@@H](CC(N)=O)C(=O)N[C@H](C(=O)N[C@@H](Cc1ccc(O)cc1)C(N)=O)[C@@H](C)O)C(C)C)[C@@H](C)O [Example 25, N-alpha-[(S)-4-Carboxy-4-(19-carboxynonadecanoylamino)butyryl]-Glu-[Arg1,Glu14,His17]-pramlintide] ({C20 diacid-γGlu}-ERCNTATCATQRLAEFLHHSSNNFGPILPPTNVGSNTY-NH2; disulfide 3-8 (inferred))
0.174 | 0.753 | 4.7 | > 200 | > 200 | > 200 | > 200 | > 200 | > 200 | > 200 | > 200 | > 200 | 69 (≈ 309 µg/mL) | CC[C@H](C)[C@H](NC(=O)[C@@H]1CCCN1C(=O)CNC(=O)[C@H](Cc1ccccc1)NC(=O)[C@H](CC(N)=O)NC(=O)[C@H](CC(N)=O)NC(=O)[C@H](CO)NC(=O)[C@H](CO)NC(=O)[C@H](CCCNC(=N)N)NC(=O)[C@H](Cc1c[nH]cn1)NC(=O)[C@H](CC(C)C)NC(=O)[C@H](Cc1ccccc1)NC(=O)[C@H](CCC(=O)O)NC(=O)[C@H](C)NC(=O)[C@H](CC(C)C)NC(=O)[C@H](CCCNC(=N)N)NC(=O)[C@H](CCC(N)=O)NC(=O)[C@@H](NC(=O)[C@H](C)NC(=O)[C@@H]1CSSC[C@H](NC(=O)[C@H](CCC(=O)O)NC(=O)CC[C@H](NC(=O)CCCCCCCCCCCCCCCCCCC(=O)O)C(=O)O)C(=O)N[C@@H](CC(N)=O)C(=O)N[C@@H]([C@@H](C)O)C(=O)N[C@@H](C)C(=O)N[C@@H]([C@@H](C)O)C(=O)N1)[C@@H](C)O)C(=O)N[C@@H](CC(C)C)C(=O)N1CCC[C@H]1C(=O)N1CCC[C@H]1C(=O)N[C@H](C(=O)N[C@@H](CC(N)=O)C(=O)N[C@H](C(=O)NCC(=O)N[C@@H](CO)C(=O)N[C@@H](CC(N)=O)C(=O)N[C@H](C(=O)N[C@@H](Cc1ccc(O)cc1)C(N)=O)[C@@H](C)O)C(C)C)[C@@H](C)O [Example 30, N-alpha-[(S)-4-Carboxy-4-(19-carboxynonadecanoylamino)butyryl]-[Glu1,Glu14,His17,Arg18]-pramlintide] ({C20 diacid-γGlu}-ECNTATCATQRLAEFLHRSSNNFGPILPPTNVGSNTY-NH2; disulfide 2-7 (inferred))
1.03 | 0.484 | 10 | > 200 | 17 (≈ 82 µg/mL) |  |  |  | 16 (≈ 77.2 µg/mL) | > 200 | > 200 | > 200 | > 200 | CC[C@H](C)[C@H](NC(=O)[C@@H]1CCCN1C(=O)CNC(=O)[C@H](Cc1ccccc1)NC(=O)[C@H](CC(N)=O)NC(=O)[C@H](CC(N)=O)NC(=O)[C@H](CO)NC(=O)[C@H](CO)NC(=O)[C@H](Cc1c[nH]cn1)NC(=O)[C@H](Cc1c[nH]cn1)NC(=O)[C@H](CC(C)C)NC(=O)[C@H](Cc1ccccc1)NC(=O)[C@H](CCC(=O)O)NC(=O)[C@H](C)NC(=O)[C@H](CC(C)C)NC(=O)[C@H](CCCNC(=N)N)NC(=O)[C@H](CCC(N)=O)NC(=O)[C@@H](NC(=O)[C@H](C)NC(=O)[C@@H]1CSSC[C@H](NC(=O)[C@H](Cc2c[nH]cn2)NC(=O)[C@H](Cc2c[nH]cn2)NC(=O)[C@H](Cc2c[nH]cn2)NC(=O)CC[C@H](NC(=O)CCCCCCCCCCCCCCCCCCC(=O)O)C(=O)O)C(=O)N[C@@H](Cc2c[nH]cn2)C(=O)N[C@@H]([C@@H](C)O)C(=O)N[C@@H](C)C(=O)N[C@@H]([C@@H](C)O)C(=O)N1)[C@@H](C)O)C(=O)N[C@@H](CC(C)C)C(=O)N1CCC[C@H]1C(=O)N[C@@H](Cc1c[nH]cn1)C(=O)N[C@H](C(=O)N[C@@H](CC(N)=O)C(=O)N[C@H](C(=O)NCC(=O)N[C@@H](CO)C(=O)N[C@@H](Cc1c[nH]cn1)C(=O)N[C@H](C(=O)N[C@@H](Cc1ccc(O)cc1)C(N)=O)[C@@H](C)O)C(C)C)[C@@H](C)O [Example 33, N-alpha-[(S)-4-Carboxy-4-(19-carboxynonadecanoylamino)butyryl]-His-His-[His1,His3,Glu14,His17,His29,His35]-pramlintide] ({C20 diacid-γGlu}-HHHCHTATCATQRLAEFLHHSSNNFGPILPHTNVGSHTY-NH2; disulfide 4-9 (inferred); C-terminus assumed)
